Source: ChEMBL document CHEMBL5649169 (ChemMedChem, 2018)

Key:
[1] = molecular target: Putative heat shock protein HSP 90-beta 2 (Homo sapiens) (UniProt Q58FF8); also: assay method not described here
[2] = molecular target: Transcription factor A, mitochondrial (Homo sapiens) (UniProt Q00059); also: assay method not described here
[3] = molecular target: Protein transport protein Sec24C (Homo sapiens) (UniProt P53992); also: assay method not described here
[4] = molecular target: Zinc finger CCCH domain-containing protein 11A (Homo sapiens) (UniProt O75152); also: assay method not described here
Zinc finger CCCH domain-containing protein 11A (Homo sapiens), sequence (O75152 whole entry, the tested form may be a part): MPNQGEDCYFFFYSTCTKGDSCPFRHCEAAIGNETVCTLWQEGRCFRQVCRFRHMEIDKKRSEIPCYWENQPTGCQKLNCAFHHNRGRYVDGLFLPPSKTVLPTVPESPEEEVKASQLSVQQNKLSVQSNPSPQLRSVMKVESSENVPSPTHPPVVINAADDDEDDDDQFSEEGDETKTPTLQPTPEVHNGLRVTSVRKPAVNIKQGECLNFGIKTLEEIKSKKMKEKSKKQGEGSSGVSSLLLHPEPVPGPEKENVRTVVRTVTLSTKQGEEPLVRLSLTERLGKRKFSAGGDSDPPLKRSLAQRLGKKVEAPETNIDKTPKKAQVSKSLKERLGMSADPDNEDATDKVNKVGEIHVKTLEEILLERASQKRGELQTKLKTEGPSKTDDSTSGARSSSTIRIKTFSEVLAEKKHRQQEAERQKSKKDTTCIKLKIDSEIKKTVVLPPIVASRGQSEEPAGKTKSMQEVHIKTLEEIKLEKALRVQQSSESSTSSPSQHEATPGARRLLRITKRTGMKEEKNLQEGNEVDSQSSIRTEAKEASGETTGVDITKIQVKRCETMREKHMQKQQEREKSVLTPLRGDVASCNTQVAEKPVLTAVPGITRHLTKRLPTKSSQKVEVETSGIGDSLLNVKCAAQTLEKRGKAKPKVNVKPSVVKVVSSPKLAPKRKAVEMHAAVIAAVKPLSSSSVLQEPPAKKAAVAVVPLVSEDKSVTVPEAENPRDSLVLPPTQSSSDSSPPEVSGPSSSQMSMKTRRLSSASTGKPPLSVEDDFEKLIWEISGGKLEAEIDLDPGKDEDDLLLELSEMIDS

[5] = molecular target: Ras-related protein Rab-10 (Homo sapiens) (UniProt P61026); also: assay method not described here
[6] = molecular target: Fanconi anemia group D2 protein (Homo sapiens) (UniProt Q9BXW9); also: assay method not described here
[7] = molecular target: Insulin-like growth factor 1 receptor (Homo sapiens) (UniProt P08069); also: assay method not described here
[8] = molecular target: Fibroblast growth factor receptor 1 (Homo sapiens) (UniProt P11362); also: assay method not described here
[9] = molecular target: 7-dehydrocholesterol reductase (Homo sapiens) (UniProt Q9UBM7); also: assay method not described here
[10] = molecular target: Small ribosomal subunit protein eS4, X isoform (Homo sapiens) (UniProt P62701); also: assay method not described here
[11] = molecular target: Spliceosome RNA helicase DDX39B (Homo sapiens) (UniProt Q13838); also: assay method not described here
[12] = molecular target: RNA-binding protein EWS (Homo sapiens) (UniProt Q01844); also: assay method not described here
[13] = molecular target: Proliferating cell nuclear antigen (Homo sapiens) (UniProt P12004); also: assay method not described here
Proliferating cell nuclear antigen (Homo sapiens), sequence (P12004 whole entry): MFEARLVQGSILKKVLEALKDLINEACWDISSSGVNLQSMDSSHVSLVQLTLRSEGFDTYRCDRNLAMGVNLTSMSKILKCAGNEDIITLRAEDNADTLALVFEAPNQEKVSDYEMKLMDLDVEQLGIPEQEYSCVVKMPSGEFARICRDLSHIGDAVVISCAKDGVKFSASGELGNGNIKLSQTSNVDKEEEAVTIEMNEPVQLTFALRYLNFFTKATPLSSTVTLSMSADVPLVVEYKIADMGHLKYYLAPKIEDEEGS

[14] = molecular target: Programmed cell death protein 6 (Homo sapiens) (UniProt O75340); also: assay method not described here
Programmed cell death protein 6 (Homo sapiens), sequence (O75340 whole entry): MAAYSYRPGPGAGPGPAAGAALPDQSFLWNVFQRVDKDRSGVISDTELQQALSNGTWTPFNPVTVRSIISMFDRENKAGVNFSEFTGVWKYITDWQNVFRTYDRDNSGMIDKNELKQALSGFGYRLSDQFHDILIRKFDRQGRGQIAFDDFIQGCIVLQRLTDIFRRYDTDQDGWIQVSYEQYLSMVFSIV

[15] = molecular target: THO complex subunit 2 (Homo sapiens) (UniProt Q8NI27); also: assay method not described here
[16] = molecular target: Exportin-5 (Homo sapiens) (UniProt Q9HAV4); also: assay method not described here
[17] = molecular target: Cancer-related nucleoside-triphosphatase (Homo sapiens) (UniProt Q9BSD7); also: assay method not described here
[18] = molecular target: Ribonuclease H1 (Homo sapiens) (UniProt O60930); also: assay method not described here
[19] = molecular target: Exosome complex component 10 (Homo sapiens) (UniProt Q01780); also: assay method not described here
[20] = molecular target: Large ribosomal subunit protein eL20 (Homo sapiens) (UniProt Q02543); also: assay method not described here
[21] = molecular target: Junction plakoglobin (Homo sapiens) (UniProt P14923); also: assay method not described here
[22] = molecular target: WASH complex subunit 5 (Homo sapiens) (UniProt Q12768); also: assay method not described here
[23] = molecular target: Tyrosine-protein kinase ABL2 (Homo sapiens) (UniProt P42684); also: assay method not described here
[24] = molecular target: Ras-related protein Rab-8A (Homo sapiens) (UniProt P61006); also: assay method not described here
[25] = molecular target: Catechol O-methyltransferase (Homo sapiens) (UniProt P21964); also: assay method not described here
[26] = molecular target: FACT complex subunit SPT16 (Homo sapiens) (UniProt Q9Y5B9); also: assay method not described here
[27] = molecular target: G1/S-specific cyclin-E1 (Homo sapiens) (UniProt P24864); also: assay method not described here
Plectin (Homo sapiens) = Plectin (Homo sapiens) (UniProt Q15149); also: assay method not described here
[28] = molecular target: Transgelin-2 (Homo sapiens) (UniProt P37802); also: assay method not described here
[29] = molecular target: Microtubule-associated protein 1B (Homo sapiens) (UniProt P46821); also: assay method not described here
[30] = molecular target: DNA replication licensing factor MCM7 (Homo sapiens) (UniProt P33993); also: assay method not described here
[31] = molecular target: Double-stranded RNA-binding protein Staufen homolog 1 (Homo sapiens) (UniProt O95793); also: assay method not described here
[32] = molecular target: Amino acid transporter heavy chain SLC3A2 (Homo sapiens) (UniProt P08195); also: assay method not described here
[33] = molecular target: Protein LSM12 (Homo sapiens) (UniProt Q3MHD2); also: assay method not described here
Protein LSM12 (Homo sapiens), sequence (Q3MHD2 whole entry): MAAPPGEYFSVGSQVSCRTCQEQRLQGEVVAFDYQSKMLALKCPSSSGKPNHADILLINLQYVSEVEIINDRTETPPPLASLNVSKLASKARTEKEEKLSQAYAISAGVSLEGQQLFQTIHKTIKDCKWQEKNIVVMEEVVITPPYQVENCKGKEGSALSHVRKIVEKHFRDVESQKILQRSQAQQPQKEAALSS

[34] = molecular target: Heterogeneous nuclear ribonucleoprotein M (Homo sapiens) (UniProt P52272); also: assay method not described here
Heterogeneous nuclear ribonucleoprotein M (Homo sapiens), sequence (P52272 whole entry): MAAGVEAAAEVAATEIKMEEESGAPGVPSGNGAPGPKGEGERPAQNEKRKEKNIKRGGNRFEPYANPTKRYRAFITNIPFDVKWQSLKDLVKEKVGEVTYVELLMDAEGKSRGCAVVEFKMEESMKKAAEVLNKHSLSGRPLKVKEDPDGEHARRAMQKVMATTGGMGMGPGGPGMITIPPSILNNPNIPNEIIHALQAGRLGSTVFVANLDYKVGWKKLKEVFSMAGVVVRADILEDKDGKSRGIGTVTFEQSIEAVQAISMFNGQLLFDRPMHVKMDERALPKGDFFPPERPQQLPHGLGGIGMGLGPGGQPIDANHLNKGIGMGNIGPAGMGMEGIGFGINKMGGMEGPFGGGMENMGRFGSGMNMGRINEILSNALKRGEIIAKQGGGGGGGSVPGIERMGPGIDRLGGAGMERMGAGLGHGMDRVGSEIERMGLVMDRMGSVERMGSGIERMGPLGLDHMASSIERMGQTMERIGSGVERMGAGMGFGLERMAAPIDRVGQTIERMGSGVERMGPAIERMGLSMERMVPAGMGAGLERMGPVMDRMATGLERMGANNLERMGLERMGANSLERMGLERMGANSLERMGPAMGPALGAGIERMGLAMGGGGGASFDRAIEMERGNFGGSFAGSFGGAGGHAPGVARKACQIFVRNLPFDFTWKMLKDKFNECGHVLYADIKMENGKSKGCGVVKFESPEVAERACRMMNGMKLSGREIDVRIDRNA

[35] = molecular target: Tubulin alpha-1C chain (Homo sapiens) (UniProt Q9BQE3); also: assay method not described here
Tubulin alpha-1C chain (Homo sapiens), sequence (Q9BQE3 whole entry, looked up): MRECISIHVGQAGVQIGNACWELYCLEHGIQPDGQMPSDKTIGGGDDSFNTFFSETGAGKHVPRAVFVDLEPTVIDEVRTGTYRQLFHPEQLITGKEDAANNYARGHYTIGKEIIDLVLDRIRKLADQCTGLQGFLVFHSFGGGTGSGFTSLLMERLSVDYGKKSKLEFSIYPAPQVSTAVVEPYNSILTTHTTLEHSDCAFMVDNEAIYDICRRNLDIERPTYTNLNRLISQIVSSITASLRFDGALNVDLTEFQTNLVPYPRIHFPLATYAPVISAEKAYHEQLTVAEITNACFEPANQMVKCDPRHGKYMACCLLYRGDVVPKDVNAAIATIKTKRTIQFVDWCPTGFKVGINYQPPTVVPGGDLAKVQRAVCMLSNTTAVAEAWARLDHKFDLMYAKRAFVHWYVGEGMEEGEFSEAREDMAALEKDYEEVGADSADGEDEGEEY

[36] = molecular target: Chitobiosyldiphosphodolichol beta-mannosyltransferase (Homo sapiens) (UniProt Q9BT22); also: assay method not described here
Chitobiosyldiphosphodolichol beta-mannosyltransferase (Homo sapiens), sequence (Q9BT22 whole entry): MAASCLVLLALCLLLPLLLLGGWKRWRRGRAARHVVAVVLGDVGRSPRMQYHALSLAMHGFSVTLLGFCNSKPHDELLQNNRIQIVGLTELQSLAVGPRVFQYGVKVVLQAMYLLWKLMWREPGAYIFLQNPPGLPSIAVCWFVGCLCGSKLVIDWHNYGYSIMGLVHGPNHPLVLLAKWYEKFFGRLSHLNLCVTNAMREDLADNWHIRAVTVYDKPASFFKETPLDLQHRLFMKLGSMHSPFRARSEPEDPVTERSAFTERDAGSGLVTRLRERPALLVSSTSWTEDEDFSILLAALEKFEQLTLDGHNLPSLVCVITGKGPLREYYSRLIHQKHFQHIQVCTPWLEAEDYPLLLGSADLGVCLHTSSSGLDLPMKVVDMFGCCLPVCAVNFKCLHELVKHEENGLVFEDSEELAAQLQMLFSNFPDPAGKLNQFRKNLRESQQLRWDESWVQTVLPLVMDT

[37] = molecular target: Polypyrimidine tract-binding protein 1 (Homo sapiens) (UniProt P26599); also: assay method not described here
[38] = molecular target: Eukaryotic translation initiation factor 3 subunit B (Homo sapiens) (UniProt P55884); also: assay method not described here
[39] = molecular target: GPI-anchor transamidase (Homo sapiens) (UniProt Q92643); also: assay method not described here
GPI-anchor transamidase (Homo sapiens), sequence (Q92643 whole entry): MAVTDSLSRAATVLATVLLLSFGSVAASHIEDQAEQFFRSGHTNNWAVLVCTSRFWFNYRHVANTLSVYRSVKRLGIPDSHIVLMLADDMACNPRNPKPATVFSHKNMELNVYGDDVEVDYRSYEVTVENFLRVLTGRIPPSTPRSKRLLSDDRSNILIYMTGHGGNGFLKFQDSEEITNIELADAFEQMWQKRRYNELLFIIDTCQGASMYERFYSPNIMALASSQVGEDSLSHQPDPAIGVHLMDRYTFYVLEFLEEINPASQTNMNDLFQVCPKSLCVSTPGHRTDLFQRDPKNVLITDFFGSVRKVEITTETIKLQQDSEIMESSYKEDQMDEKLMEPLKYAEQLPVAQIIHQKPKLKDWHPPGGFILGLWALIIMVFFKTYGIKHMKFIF

[40] = molecular target: NADH dehydrogenase [ubiquinone] 1 alpha subcomplex assembly factor 4 (Homo sapiens) (UniProt Q9P032); also: assay method not described here
[41] = molecular target: Transmembrane protein 33 (Homo sapiens) (UniProt P57088); also: assay method not described here
[42] = molecular target: UV excision repair protein RAD23 homolog B (Homo sapiens) (UniProt P54727); also: assay method not described here
[43] = molecular target: Ribosomal protein S6 kinase alpha-4 (Homo sapiens) (UniProt O75676); also: assay method not described here
[44] = molecular target: Protein FAM136A (Homo sapiens) (UniProt Q96C01); also: assay method not described here
Protein FAM136A (Homo sapiens), sequence (Q96C01 whole entry, the tested form may be a part): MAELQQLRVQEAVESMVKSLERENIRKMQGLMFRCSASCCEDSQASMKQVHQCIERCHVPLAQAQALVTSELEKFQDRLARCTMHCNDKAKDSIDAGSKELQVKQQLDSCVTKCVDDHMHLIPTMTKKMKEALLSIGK

Ephrin type-A receptor 3 = Ephrin type-A receptor 3 (Homo sapiens, UniProt P29320); assay: Inhibition of Nano Luc-fused full length C-terminal EPHA3 (unknown origin) expressed in HEK293T cells using NanoGlo as substrate incubated for 2 hrs in presence of tracer by NanoBRET assay; assay type: cell-based
Ephrin type-A receptor 3, sequence (P29320 whole entry, the tested form may be a part): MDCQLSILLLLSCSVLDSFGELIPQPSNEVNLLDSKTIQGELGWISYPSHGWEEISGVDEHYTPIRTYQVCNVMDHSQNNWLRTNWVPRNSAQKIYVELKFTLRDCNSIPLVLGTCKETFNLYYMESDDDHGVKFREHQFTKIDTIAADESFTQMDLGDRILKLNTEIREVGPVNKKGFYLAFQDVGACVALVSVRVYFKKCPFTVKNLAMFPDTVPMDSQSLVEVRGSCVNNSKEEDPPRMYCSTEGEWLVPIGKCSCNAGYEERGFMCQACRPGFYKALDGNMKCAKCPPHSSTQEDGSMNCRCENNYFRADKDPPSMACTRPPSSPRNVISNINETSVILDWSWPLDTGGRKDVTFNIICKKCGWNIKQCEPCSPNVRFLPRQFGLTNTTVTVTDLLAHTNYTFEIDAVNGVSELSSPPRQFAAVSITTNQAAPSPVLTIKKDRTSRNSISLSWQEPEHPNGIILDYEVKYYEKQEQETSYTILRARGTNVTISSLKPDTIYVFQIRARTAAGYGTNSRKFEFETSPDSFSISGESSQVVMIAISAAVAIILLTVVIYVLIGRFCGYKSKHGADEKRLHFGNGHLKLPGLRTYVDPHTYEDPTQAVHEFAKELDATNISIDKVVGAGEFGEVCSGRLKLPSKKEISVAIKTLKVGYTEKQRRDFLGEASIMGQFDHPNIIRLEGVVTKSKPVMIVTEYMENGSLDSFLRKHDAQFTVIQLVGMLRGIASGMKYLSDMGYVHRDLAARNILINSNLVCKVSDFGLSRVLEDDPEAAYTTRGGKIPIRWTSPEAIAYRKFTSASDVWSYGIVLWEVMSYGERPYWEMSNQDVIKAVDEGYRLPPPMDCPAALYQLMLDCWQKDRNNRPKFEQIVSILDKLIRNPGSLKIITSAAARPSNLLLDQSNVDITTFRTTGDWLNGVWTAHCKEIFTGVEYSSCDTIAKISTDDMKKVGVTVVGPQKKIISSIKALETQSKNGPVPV

Transcription factor A, mitochondrial (Homo sapiens), sequence (Q00059 whole entry): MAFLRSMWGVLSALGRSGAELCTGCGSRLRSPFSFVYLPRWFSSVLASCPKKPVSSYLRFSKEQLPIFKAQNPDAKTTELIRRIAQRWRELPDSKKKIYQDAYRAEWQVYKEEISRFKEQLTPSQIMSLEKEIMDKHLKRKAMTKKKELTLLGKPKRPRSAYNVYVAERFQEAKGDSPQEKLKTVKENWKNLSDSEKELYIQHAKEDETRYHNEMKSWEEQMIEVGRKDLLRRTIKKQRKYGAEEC

Cc1ccc(C(=O)Nc2cccc(C(F)(F)F)c2)cc1Nc1nc(-c2cccnc2)nc2c1cnn2C was tested, and the ED50 [1] was 0.0112 µM, the ED50 [2] was 17 µM and the ED50 [3] was 0.0116 µM. It also gave an ED50 [4] of 0.149 µM, an ED50 [5] of 0.846 µM and an ED50 [6] of 1.96 µM. For the same molecule, the ED50 [7] was 0.0179 µM, the ED50 [8] was 11.2 µM and the ED50 [9] was 0.0142 µM. The ED50 [10] was 0.0296 µM, the ED50 [11] was 18.4 µM and the ED50 [12] was 54.1 µM. It also gave an ED50 [13] of 3.51 µM, an ED50 [14] of 1.36 µM and an ED50 [15] of 8.4 µM. The ED50 [16] was 0.0475 µM, the ED50 [17] was 844 µM and the ED50 [18] was 12.7 µM. The ED50 [19] was 0.0037 µM, the ED50 [20] was 0.0981 µM and the ED50 [21] was 23.1 µM. For the same molecule, the ED50 [22] was 0.000337 µM, the ED50 [23] was 1.06 µM and the ED50 [24] was 23.3 µM. The ED50 [25] was 21.6 µM, the ED50 [26] was 0.0046 µM and the ED50 [27] was 0.103 µM. The ED50 (Plectin (Homo sapiens)) was 11.9 µM, the ED50 [28] was 3.15 µM and the ED50 [29] was 0.0244 µM. For the same molecule, the ED50 [30] was 5.39 µM, the ED50 [31] was 2.27 µM and the ED50 [32] was 5.57 µM. It also gave an ED50 [33] of 0.00519 µM, an ED50 [34] of 8.57 µM and an ED50 [35] of 0.00564 µM. The ED50 [36] was 1.14 µM, the ED50 [37] was 3.12 µM and the ED50 [38] was 9.87 µM. For the same molecule, the ED50 [39] was 3.43 µM, the ED50 [40] was 0.0015 µM and the ED50 [41] was 4.89 µM. For the same molecule, the ED50 [42] was 0.00259 µM, the ED50 [43] was 0.0142 µM and the ED50 [44] was 0.043 µM. For the same molecule, the IC50 (Ephrin type-A receptor 3) was 0.0003 µM.
Cc1ccc(C(=O)Nc2cccc(C(F)(F)F)c2)cc1Nc1nc(-c2cccnc2)nc2nn(C)cc12 was tested, and the ED50 [1] was 0.573 µM, the ED50 [2] was 0.0487 µM and the ED50 [3] was 1.46 µM. The ED50 [4] was 3.88 µM, the ED50 [5] was 7.34 µM and the ED50 [6] was 2.28 µM. It also gave an ED50 [7] of 8.2 µM, an ED50 [8] of 0.0526 µM and an ED50 [9] of 0.0055 µM. For the same molecule, the ED50 [10] was 0.515 µM, the ED50 [11] was 0.957 µM and the ED50 [12] was 11.8 µM. The ED50 [13] was 0.502 µM, the ED50 [14] was 1.04 µM and the ED50 [15] was 2.05 µM. The ED50 [16] was 3.69 µM, the ED50 [17] was 0.0608 µM and the ED50 [18] was 385 µM. It also gave an ED50 [19] of 348 µM, an ED50 [20] of 3.15 µM and an ED50 [21] of 12.7 µM. It also gave an ED50 [22] of 3.06 µM, an ED50 [23] of 2.04 µM and an ED50 [24] of 3690 µM. It also gave an ED50 [25] of 0.169 µM, an ED50 [26] of 0.149 µM and an ED50 [27] of 0.0206 µM. For the same molecule, the ED50 (Plectin (Homo sapiens)) was 0.011 µM, the ED50 [28] was 0.102 µM and the ED50 [29] was 0.01 µM. For the same molecule, the ED50 [30] was 50.3 µM, the ED50 [31] was 0.0134 µM and the ED50 [32] was 0.362 µM. The ED50 [33] was 5.58 µM, the ED50 [34] was 13.5 µM and the ED50 [35] was 9.37 µM. It also gave an ED50 [36] of 0.0163 µM, an ED50 [37] of 18.3 µM and an ED50 [38] of 0.00195 µM. For the same molecule, the ED50 [39] was 0.0839 µM, the ED50 [40] was 1.82 µM and the ED50 [41] was 0.0053 µM. For the same molecule, the ED50 [42] was 14.9 µM, the ED50 [43] was 0.154 µM and the ED50 [44] was 4.63 µM. It also gave an IC50 (Ephrin type-A receptor 3) of 0.05 µM.
